These results are taken from PubChem BioAssay AID624482 (The Scripps Research Institute Molecular Screening Center, 2012).

Calls of active or inactive are those of the source.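 How the source made its calls: active means inhibition of the enzyme prolyl endopeptidase above 20%; inactive means inhibition at or below 20%.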

Prolyl endopeptidase (Mus musculus), sequence (Q9QUR6 whole entry, looked up): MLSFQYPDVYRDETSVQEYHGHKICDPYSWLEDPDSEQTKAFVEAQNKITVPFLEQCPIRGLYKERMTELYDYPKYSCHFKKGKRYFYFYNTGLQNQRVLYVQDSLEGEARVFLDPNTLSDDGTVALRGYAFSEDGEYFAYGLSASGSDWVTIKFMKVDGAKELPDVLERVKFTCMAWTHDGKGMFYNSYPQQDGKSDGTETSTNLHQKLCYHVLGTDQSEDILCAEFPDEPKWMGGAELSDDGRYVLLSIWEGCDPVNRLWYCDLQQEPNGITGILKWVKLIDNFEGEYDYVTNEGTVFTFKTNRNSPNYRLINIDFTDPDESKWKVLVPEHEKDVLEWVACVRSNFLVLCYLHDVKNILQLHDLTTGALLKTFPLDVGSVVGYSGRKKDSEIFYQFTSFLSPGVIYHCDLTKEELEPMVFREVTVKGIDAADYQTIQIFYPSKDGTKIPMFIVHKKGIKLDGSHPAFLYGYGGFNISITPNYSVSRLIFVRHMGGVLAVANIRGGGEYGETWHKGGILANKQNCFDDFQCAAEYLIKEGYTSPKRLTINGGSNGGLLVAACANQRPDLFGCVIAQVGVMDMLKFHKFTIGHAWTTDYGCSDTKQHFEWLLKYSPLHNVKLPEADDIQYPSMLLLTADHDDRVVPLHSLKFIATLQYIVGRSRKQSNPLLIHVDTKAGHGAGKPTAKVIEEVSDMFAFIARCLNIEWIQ

This experiment addresses Prolyl endopeptidase (Mus musculus) (UniProt Q9QUR6). The experiment is described as follows: prolyl endopeptidase enzyme blockade – biochemical, fluorescence, mouse, assay provider data, selectivity assay for PREPL inhibitor project (AID 624482). Particulars: recombinant PEP, Z-Gly-Pro-AMC fluorescence; at 20 µM; stronger effect = higher value.
Broadly, the inhibition is the change of the read-out against control, counted positive when it falls. As to `CC(C)Cc1[nH]c(=O)c(C#N)c2c1CCC2`, the inhibition is -17% (inactive).

Turning to `N#Cc1c2c(c(-c3ccccc3)[nH]c1=O)CCCC2`, the inhibition was -13% (inactive).

With `COc1cc2nc(Nc3ccc(C)c(C)c3)nc(N)c2cc1OC`, the inhibition was 46%.

`CCOc1ccc(CCNC(=O)c2ccc3c(=O)[nH]c4c(C(=O)NC(C)C)sc(=S)n4c3c2)cc1`: the inhibition is -29% (inactive).

`O=C(Nc1ccc2c(c1)OCCO2)c1cccc2nc3ccccc3nc12`: the inhibition is -26% (inactive).
